# Measured values as given in patent US7517881B2, “Triazine derivatives, their preparation and therapeutic application thereof” (Aventis Pharma S.A., priority 2005, dated 2009).
# Biological target: T1, nicotinic receptors containing the α7 subunit (Rattus norvegicus, UniProt Q05941)
# T1 construct: displace the [^3H]-MLA bond on the rat hippocampus membranes; from tissue; host or cells: hippocampus of female Sprague-Dawley rats (membrane preparation)
# Assay: binding to nicotinic receptors containing the α7 subunit, competition versus [3H]-methyllycaconitine on rat hippocampus membranes
# Details: apparent affinity constant by Cheng and Prusoff, displacement of 5 nM [3H]-MLA, 2 hours at about 20° C.
# Description: The compounds of the invention were tested for their ability to bind the nicotinic receptors containing the α7 subunit using a test of binding to preparations of rat brain membranes according to the methods described hereunder:
# Frozen specimens of hippocampus from the brain of female Sprague-Dawley rats were stored at −20° C. until used. The hippocampi from 10 rats were combined and homogenized using a pulverizer of the Polytron type in 10 volumes of an ice-cooled buffer with the following composition: KCl (11 mM); KH2PO4 (6 mM); NaCl (137 mM); Na2HPO4 (8 mM); HEPES (20 mM); iodoacetamide (5 mM); EDTA (1.5 mM); PMSF (0.1 mM). The pH was adjusted to 7.4 with NaOH. […]
# The binding of the compounds of the invention for receptors containing the α7 subunit was measured by competition versus [^3H]-methyllycaconitine ([^3H]-MLA), a radiolabeled tracer which recognizes the α7 receptors (Davies et al., Neuropharmacology 1999, 38, 679-690) according to conventional methods adapted to the format of 96-well plates. The ability of the compounds of the invention to displace the [^3H]-MLA bond on the rat hippocampus membranes was determined in duplicate after incubation for 2 hours at a temperature close to 20° C. […] The non-specific binding was determined in specific wells containing 10 μM of non-radiolabeled MLA. […]
# T1 sequence (Q05941 23-502): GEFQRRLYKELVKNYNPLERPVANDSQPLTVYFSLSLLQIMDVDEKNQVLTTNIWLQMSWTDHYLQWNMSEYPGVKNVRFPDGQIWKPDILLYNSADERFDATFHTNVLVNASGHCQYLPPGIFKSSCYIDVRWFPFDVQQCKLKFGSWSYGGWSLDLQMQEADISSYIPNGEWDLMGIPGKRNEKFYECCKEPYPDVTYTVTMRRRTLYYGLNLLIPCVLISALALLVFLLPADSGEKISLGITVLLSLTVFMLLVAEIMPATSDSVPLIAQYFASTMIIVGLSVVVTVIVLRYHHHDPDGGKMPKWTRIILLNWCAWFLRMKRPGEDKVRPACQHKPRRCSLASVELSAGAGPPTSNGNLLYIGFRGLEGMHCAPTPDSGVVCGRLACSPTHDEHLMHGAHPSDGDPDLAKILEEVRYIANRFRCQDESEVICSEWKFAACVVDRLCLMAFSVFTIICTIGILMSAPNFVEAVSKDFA
row,Ki [nM],Compound
1,737,"CCN(CC)CCCNc1nnc(-c2cn(-c3ccccc3)c3ccccc23)c(=O)[nH]1 [Compound No. 11, 6-(1-phenyl-indol-3-yl)-3-(3-diethylaminopropylamino)-4H-1,2,4-triazin-5-one]"
2,957,"CCN(CC)CCCNc1nnc(-c2csc3ccccc23)c(=O)[nH]1 [Compound No. 12, 6-(benzothiophen-3-yl)-3-(3-diethylaminopropylamino)-4H-1,2,4-triazin-5-one]"
